The numbers were not newly measured in patent publication US20070098469A1, “Fixing apparatus for nonheat fixing system, and image forming apparatus having fixing apparatus” (priority 2005, published 2007), which cites them from elsewhere.

SMILES strings stand for the structures.

The conditions of this series: in vivo.
For orientation: LD50 means the dose at which mortality reaches 50%. For `CC(C)COC(=O)CCCCC(=O)OCC(C)C` [Diisobutyl adipate], the LD50 is 12300 mg/kg. Consider `CCCCOC(=O)CCCCCCCCC(=O)OCCCC` [Di-n-butyle sebacate], for which the LD50 is 14900 mg/kg. Regarding `CCO` [Ethanol], the median lethal dose (LD50) was 20000 mg/kg.

With `CCOCCOC(=O)CCC(=O)OCCOCC` [Diethoxyethyl succinate], the LD50 was 5000 mg/kg.
